The text below walks through data of patent US11524055B2, “Methods for treating diseases mediated by ERBB4-positive pro-inflammatory macrophages” (Children's Hospital Los Angeles, priority 2015, dated 2022).

The experiment deals with M1-polarized Mø (classically activated BMDMs). Description: Cell Titer Blue (resazurin-based) cell viability assay, classically activated (M1) BMDMs. Conditions: 1 h pre-treatment, then 100 ng/ml NRG4 and 100 ng/ml LPS. Details: species or system mouse. In general terms: Resazurin is reduced to fluorescent resorufin, in cell work by metabolically active cells.

Method: (FIG. 8A) Classically activated (M1) or alternatively activated (M2) BMDMs were treated with NRG4 (100 ng/ml) for 48 hours and analyzed by resazurin-based cell titer assay to assess cell numbers compared to control. (FIG. 8B) Classically activated BMDMs pre-incubated for 30 minutes with or without 2 μg/ml ErbB4 neutralizing antibody (E4BA), and treated with or without NRG4 (100 ng/ml) for 48 hours, were stained for cleaved caspase-3. […] (FIG. 8C) Classically activated BMDMs treated with NRG4 (100 ng/ml) for 48 hours were stained for annexin V and propidium iodide (PI), and analyzed by flow cytometry to determine apoptotic cells. n=3-6 independent experiments for each panel. Error bars represent SEM. *, p<0.05; **, p<0.01.
(FIG. 9B) Classically activated BMDMs were pre-treated for 1 hour with metalloprotease inhibitor (GM6001, 10 γ-secretase inhibitor (DAPT, 10 or ADAM17 inhibitor (GW280264X, 3 μM) followed by 100 ng/ml NRG4 and 100 ng/ml LPS. Percent cell viability was analyzed by rezasurin-based cell titer assay. Error bars represent SEM. ***, p<0.001. (FIG. 9C) Immunofluorescence analysis of ErbB4 localization to the mitochondria of classically activated BMDMs treated with or without NRG4 (100 ng/ml) for 48 hours. Arrows point to representative cells with ErbB4/mitochondrial overlap. n=4 independent experiments.
IFNγ/LPS-treated Mø were exposed to NRG4 (100 ng/ml)+/−ErbB4 blocking antibody (E4BA; 2 μg/ml) for 48 h and counted by Cell Titer Blue assay (Promega). n=4. *, p<0.01.
For BMDMs, adherent cells were washed at 3 days and re-fed with M-CSF containing media until experimentation at day 7-8. For M1 polarization, cells were pre-treated with 100 U/ml IFNγ for 16 hours, then stimulated with 100 ng/ml LPS.
BMDMs were plated in 96 well plates at 40,000 cells per well. Cells were washed and plated in DMEM with 10% heat-inactivated FBS, 100 U/ml penicillin and streptomycin, and given 100 U/ml IFNγ overnight. […] Relative cell numbers were determined by Cell Titer Blue (resazurin-based assay) following manufacturer's instructions (Promega, G8081). […]

As for `C[C@H](NC(=O)Cc1cc(F)cc(F)c1)C(=O)N[C@H](C(=O)OC(C)(C)C)c1ccccc1` [DAPT], for the setting “inhibitor 10 μM”, the “Effect on NRG4-induced cell death (percent cell viability)” value is given as “protected against the NRG4-induced cell death”.
Still for that read-out and setting: then `CNC(=O)[C@H](Cc1c[nH]c2ccccc12)NC(=O)[C@@H](CC(=O)NO)CC(C)C` [GM6001], with “protected against the NRG4-induced cell death”.
Regarding GW280264X, the “Effect on NRG4-induced cell death (percent cell viability)” value (inhibitor 3 μM) is “protected against the NRG4-induced cell death”.
